Measured values: ChEMBL document CHEMBL1201862, “PubChem BioAssay data set” (2004)
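Test compounds were applied to cells in 96-well plates for 48 hours at 5 doses. GI50 marks 50% less growth.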 Activity calls are given as the source filed them. No stated cut-off is given here; in the data, active = GI50 up to about 1.1 µM and inactive = higher.

Columns and labels:
Test in all cases: NCI-60 cell line screen, 48 h
[1] = tested on: BT-549
[2] = tested on: OVCAR-8
[3] = tested on: Hs-578T
[4] = tested on: KM12
[5] = tested on: MDA-MB-231
[6] = tested on: OVCAR-3
[7] = tested on: SK-MEL-2
[8] = tested on: SW-620
[9] = tested on: HL-60
[10] = tested on: SF-268
[11] = tested on: MCF7
[12] = tested on: TK-10
[13] = tested on: CAKI-1
[14] = tested on: K562
[15] = tested on: SNB-75
[16] = tested on: HCT-116
[17] = tested on: SNB-19
[18] = tested on: T47D
[19] = tested on: NCI-H226
[20] = tested on: SF-295

Measured: GI50

N#CC(c1ccccc1)N(CCOCCOCCN(C(=O)c1cccc2ccccc12)C(C#N)c1ccccc1)C(=O)c1cccc2ccccc12 (stereo not given)
inactive: [1] > 100 µM | [2] > 100 µM | [3] > 100 µM | [4] > 100 µM | [5] > 100 µM | [6] > 100 µM | [7] > 100 µM | [8] > 100 µM | [9] 31.7 µM | [10] > 100 µM | [11] > 100 µM | [12] > 100 µM | [13] > 100 µM | [14] 42.4 µM | [15] > 100 µM | [16] 9.55 µM | [17] > 100 µM | [18] 4.1 µM | [19] > 100 µM | [20] > 100 µM

C=C1CC2[C@H](C)C(=O)CCC2(C)C2=C1C1CCC(C(C)CCC(=C)C(C)C(=O)O)C1(C)CC2=O (stereo not given in full)
inactive: [1] 37.2 µM | [2] 75.7 µM | [3] > 100 µM | [4] 71.4 µM | [5] > 100 µM | [6] 30.5 µM | [7] > 100 µM | [8] 61.7 µM | [9] 15.2 µM | [10] > 100 µM | [11] 83.9 µM | [12] 44.9 µM | [13] > 100 µM | [14] 9.75 µM | [15] 95.5 µM | [16] 32.5 µM | [17] 69.5 µM | [18] 41.6 µM | [19] 82 µM | [20] 62.5 µM
